Data: US5538997A, “2,4-diamino-3-hydroxycarboxylic acid derivatives” (Sandoz Ltd., priority 1993, dated 1996)

Tests used:
[1] = target: cathepsin D (Homo sapiens, UniProt P07339); test: Inhibition of cathepsin D (specificity); assay type: biochemical
[2] = target: recombinant HIV-1-proteinase (Human immunodeficiency virus type 1 group M subtype B, UniProt P04585); test: biochemical
Method: (§1) 1. Assay of peptide cleavage by HIV-proteinase
(§2) Inhibition of HIV-proteinase is measured as described in the literature: A. Richards et al., J. Biol. Chem. 265, 773-7736 (1990) and L. H. Philip et al., Biochem. Biophys. Res. Comun. 171,439-444 (1990). Briefly the peptide H-Lys-Ala-Arg-Val-Leu-Nph-Glu- Ala-Nle-NH2 (where Nph is p-nitrophenylalanine and Nle is norleucine) is used as substrate for recombinant HIV-1- and HIV-2-proteinase. Cleavage occurs between the Leu and Nph residues. The reaction is followed spectrophotometrically by the decrease in extinction at 300 nm which is observed upon cleavage.

[3] = target: T1, recombinant HIV-2-proteinase (Human immunodeficiency virus type 2 subtype A, UniProt P04584); test: Assay of peptide cleavage by HIV-proteinase (HIV-2); assay type: biochemical; conditions: substrate H-Lys-Ala-Arg-Val-Leu-Nph-Glu-Ala-Nle-NH2
T1 construct: recombinant HIV-1- and HIV-2-proteinase
T1 sequence (P04584 514-612 limits assumed): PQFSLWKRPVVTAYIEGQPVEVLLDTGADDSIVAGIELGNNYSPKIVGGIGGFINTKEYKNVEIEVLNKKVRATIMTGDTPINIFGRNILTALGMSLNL
Method: as §1, §2

[4] = tested on: HIV-1 (HTLV IIIB)-induced cytopathic effect in MT4-cells; test: Cellular assay: inhibition of HIV-1-induced cytopathic effect in MT4-cells (MTT); assay type: cell-based; conditions: Human immunodeficiency virus 1, read-out: IC50 in the cellular assay (virus-inhibitory concentration)
Method: Inhibition of the HIV-1 (HTLV IIIB)-induced cytopathic effect is measured in MT4-cells as described in the literature (R. Pauwels et al, J. Virol. Meth. 20 309-321 [1988]). Briefly, an HTLV-1 transformed T4 cell line, MT4, which has been shown previously to be highly permissive to HIV infection, serves as a target cell line. Inhibition of HIV-induced cytopathic effect is used as the end point. The viability of both HIV- and mock-infected cells is assessed spectrophotometrically via the in situ-reduction of 3-(4,5-dimethylthiazol-2-yl)-2,5-diphenyltetrazolium bromide (MTT). The comparison of the effects of various concentrations of the agent on HIV- versus mock-infected cells allows the determination of cytotoxic (TC50) and virus-inhibitory (IC50) concentrations.

[5] = target: T2, renin (Homo sapiens, UniProt P00797); test: Inhibition of renin (specificity); assay type: biochemical
T2 sequence (P00797 67-406): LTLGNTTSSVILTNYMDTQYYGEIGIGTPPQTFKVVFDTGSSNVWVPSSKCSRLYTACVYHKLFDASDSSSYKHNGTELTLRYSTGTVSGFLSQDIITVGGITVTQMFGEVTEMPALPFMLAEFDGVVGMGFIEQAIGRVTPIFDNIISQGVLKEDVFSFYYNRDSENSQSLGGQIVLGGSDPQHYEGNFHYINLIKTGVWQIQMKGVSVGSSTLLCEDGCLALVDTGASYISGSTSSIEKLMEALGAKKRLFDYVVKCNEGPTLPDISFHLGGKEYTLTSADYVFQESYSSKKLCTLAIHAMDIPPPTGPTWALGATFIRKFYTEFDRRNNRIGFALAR

[6] = Assay of oral bioavailability in mice; design: species or system Female Balb/c mice; conditions: mouse, in vivo
Method: As is known from the literature, peptide based drugs characteristically show poor oral bioavailability. Since with HIV patients long term medication with proteinase inhibitors is anticipated, it is important that a useful drug be orally bioavailable. This is one of the main obstacles in the development of effective drugs in this peptidic structural class. […] This can be shown e.g. in the following test:
For peroral administration, a solution of the test substance (25 mg/ml) in a suitable solvent such as Cremophor RH40^R /Maisine^R /propylene glycol / ethanol (38/32/15/15) is prepared. Female Balb/c mice are fasted for 24 hours prior to the start, and throughout the experiment water is given ad libitum. At various times following drug administration, blood samples are obtained by sacrificing animals under anaesthesia by cutting the vena jugularis, followed by cervical dislocation. Samples are collected in heparinized tubes (typically 0.4-0.6 ml). For sample analysis solid phase extraction and HPLC are used. Drug concentration in the samples is calculated by least-squares linear regression analysis of the peak area ratio (inhibitor/internal standard) of spiked blood standards versus concentration. From the concentration versus time data, the "Area Under the Curve" (AUC) value is calculated by the trapezoidal rule.

Sequence of cathepsin D (P07339 65-412): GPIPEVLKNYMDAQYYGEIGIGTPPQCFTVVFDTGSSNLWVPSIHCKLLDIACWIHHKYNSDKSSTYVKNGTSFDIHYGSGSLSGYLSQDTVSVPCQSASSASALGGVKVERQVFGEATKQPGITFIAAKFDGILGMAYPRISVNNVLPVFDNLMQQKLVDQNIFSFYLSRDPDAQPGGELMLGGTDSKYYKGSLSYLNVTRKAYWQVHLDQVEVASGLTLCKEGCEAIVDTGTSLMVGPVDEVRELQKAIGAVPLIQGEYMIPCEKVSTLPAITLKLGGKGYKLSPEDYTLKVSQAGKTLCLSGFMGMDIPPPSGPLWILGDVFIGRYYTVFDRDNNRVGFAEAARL

- inhibition of endogenous proteinase cathepsin D [1]: does not inhibit
- Ki [2]: 9.5 nM
- Ki [3]: 50 nM
- inhibition of endogenous proteinase renin [5]: does not inhibit
- oral uptake [6]: excellent oral uptake
Structure (SMILES): COc1ccc(CNC(C(=O)NC2c3ccccc3CC2O)C(O)C(Cc2ccccc2)NC(=O)C(NC(=O)OCc2ccccc2)C(C)(C)C)cc1 [Example 2, 4(S)-(Benzyloxycarbonyl-L-tert-leucinoy)amino-3(S)-hydroxy-2(R)-(4-methoxybenzylamino)-5-phenyl-pentanoic acid 1 (S)-amino-2(R)-hydroxyindan-amide]
- IC50 [4]: 250 nM
